Assay results reported in publication PMC11768839 (Viruses, 2024).

Key:
[1] = tested on: influenza PR8; assay type: cell-based, Influenza A virus PR8
[2] = tested on: HCoV-229E

Compound: O=[N+]([O-])c1ccc(Nc2ccc(Cl)c(C(F)(F)F)c2)c2nonc12 [Compound 5342191, N-[4-chloro-3-(trifluoromethyl)phenyl]-7-nitro-2,1,3-benzoxadiazol-4-amine]
- sensitivity of selected influenza PR8 virus to EC90 dose [1]: remained sensitive
- sensitivity of selected HCoV-229E virus to EC90 dose [2]: remained sensitive
